Legend:
[1] = tested on: MV4:11 human cancer cell lines; test: Cellular viability / anti-proliferative assay, CellTiter-Glo, 5 day protocol; type: cell-based; conditions: Homo sapiens, MV4-11, 120 h, MV4:11 cells; 5 day incubation; CellTiter-Glo; mean of at least two replicates; read-out: GI50 on cellular proliferation of MV4:11 human cancer cell lines
Protocol: Cellular Viability of Human Tumor Cell Lines
Anti-proliferative activity using MLL-harboring cell lines. MV-4-11 and K562 cells are grown in IMDM media supplemented with 10% FBS and 1% penicillin/streptomycin, Molm-13 cells are cultured in RPMI-1640 media supplemented with 10% FBS and 1% penicillin/streptomycin. Viability assays are performed by dispensing 200 cells at 7200 cells/mL into each well of an opaque 384-well plate and adding compounds at the indicated concentrations in a final volume, of 32 μL. and a final concentration of DMSO of 0.3% for all samples. A certain range of compound concentrations is made through a series of 2-fold dilutions starting 30 μM at the highest, total 22 dilutions. After a set incubation period, 5 day protocol, the viability of cells in each well is assessed using the CellTiter-Glo assay (Promega), read on a 96 Microplane Luminometer (Cytation 3, BioTek). Serial dilutions of each cell type are performed in all assays to generate standard curves and the final densities of cells are determined within the dynamic range of the instrument. GI50 values are calculated based on XLfit software (IDBS, Guildford, UK) with Sigmoidal Dose-Response Model. Each compound is tested in minimum of two replicates. Data are expressed as mean.

WDR5 = WDR5 (Homo sapiens, UniProt P61964); test: TR-FRET competition binding assay, displacement of 10mer-Thr-FAM MLL peptide probe from His-tagged WDR5; conditions: WDR5-His tag (residues 24-334) 2 nM; 10mer-Thr-FAM 150 nM; 60 min, room temperature; read-out: Ki for Inhibition of WDR5 by TR-FRET assay
Protocol: Time Resolved-Fluorescence Energy Transfer Competition Assay […] Excess 10mer-Thr-FAM probe was utilized with His-tagged WDR5 in conjunction with a commercial anti-His antibody containing a Terbium label. The LanthaScreenTM Elite Tb-anti-HIS Antibody from ThermoFisher Scientific was used for this purpose. […] The 10mer-Thr-FAM probe when bound to WDR5 will undergo a FRET interaction with the Tb-anti-HIS and emit at 520 nm. […] WDR[…] 10[…] used at 150 nM. […] A source plate is prepared using an Echo Liquid Handler, which distributes the compounds to the assay plate (white, flat-bottom; OptiPlate) in a 10-point, 5-fold dilution schemes with a top concentration of 5 μM, in a final volume of 20 μL. […] The final DMSO concentration in each well of the assay plate is 1% or lower. The plate is covered, shielded from light, and incubated for 60 minutes at room temperature with rocking. 10mer-Thr-FAM and Anti-His terbium antibody fluorescence is then measured on a Biotek Cytation 3 at excitation wavelength of 340 nm, and emission wavelengths of 495 nm and 520 nm. […] TR-FRET signal is plotted and IC50 and Ki values are calculated according to the formula of Wang Z. FEBS Lett (1996) 3, 245. Ki=[I]50/([L]50/Kd+[P]0/Kd+1) where [I]50 is the concentration of the free inhibitor at 50% inhibition, [L]50 is the concentration of the free labeled ligand at 50% inhibition, [P]0 is the concentration of the free protein at 0% inhibition, Kd represents the dissociation constant of the FITC-MLL or 10mer-Thr-FAM probe for WDR5. Total fluorescence is also measured, to rule out compounds that are inherently fluorescent or able to act as quenchers in the assay. TR-FRET Binding Assay

SMILES | GI50 [1] [nM] | Ki (WDR5) [nM]
CCc1cc(F)c2cncc(N3CCc4c(cc(Cn5ccnc5)cc4-c4cn(C)nc4C(F)(F)F)C3=O)c2c1 [Example 115, 7-((1H-Imidazol-1-yl)methyl)-6′-ethyl-8′-fluoro-5-(1-methyl-3-(trifluoromethyl)-1H-pyrazol-4-yl)-3,4-dihydro-1H-[2,4′-biisoquinolin]-1-one] | 40 | 0.031
CCc1cc(N2CC(=O)N(C)C2)c2nc(C)cc(N3CCc4c(cc(Cn5ccnc5)cc4-c4cn(C)nc4C(F)(F)F)C3=O)c2c1 [Example 113, 7-((1H-Imidazol-1-yl)methyl)-2-(6-ethyl-2-methyl-8-(3-methyl-4-oxoimidazolidin-1-yl)quinolin-4-yl)-5-(1-methyl-3-(trifluoromethyl)-1H-pyrazol-4-yl)-3,4-dihydroisoquinolin-1(2H)-one] | < 20 | 0.023
Cc1ccc2c(N3CCc4c(cc(Cn5ccnc5)cc4-c4cn(C)nc4C(F)(F)F)C3=O)cccc2n1 [Example 103, 7-((1H-Imidazol-1-yl)methyl)-5-(1-methyl-3-(trifluoromethyl)-1H-pyrazol-4-yl)-2-(2-methylquinolin-5-yl)-3,4-dihydroisoquinolin-1(2H)-one] | 718 | 0.029
COc1ccc2c(c1)[C@@H](N1CCc3c(cc(Cn4ccnc4)cc3-c3cn(C)nc3C(F)(F)F)C1=O)CCO2 [Example 70, (S)-7-((1H-Imidazol-1-yl)methyl)-2-(6-methoxychroman-4-yl)-5-(1-methyl-3-(trifluoromethyl)-1H-pyrazol-4-yl)-3,4-dihydroisoquinolin-1(2H)-one] | < 20 | < 0.02
COc1cc2c(N3CCc4c(cc(Cn5ccnc5)cc4-c4cn(C)nc4C(F)(F)F)C3=O)cccc2nc1C [Example 114, 7-((1H-Imidazol-1-yl)methyl)-2-(3-methoxy-2-methylquinolin-5-yl)-5-(1-methyl-3-(trifluoromethyl)-1H-pyrazol-4-yl)-3,4-dihydroisoquinolin-1(2H)-one] | 43 | 0.038
CCc1cc(C(=O)NCC2CN(C(C)=O)C2)c2nccc(N3CCc4c(cc(Cn5ccnc5)cc4-c4cn(C)nc4C(F)(F)F)C3=O)c2c1 [Example 218, 4-(7-((1H-Imidazol-1-yl)methyl)-5-(1-methyl-3-(trifluoromethyl)-1H-pyrazol-4-yl)-1-oxo-3,4-dihydroisoquinolin-2(1H)-yl)-N-((1-acetylazetidin-3-yl)methyl)-6-ethylquinoline-8-carboxamide] | 21 | < 0.02
COc1cc(C#N)c2nc(C)cc(N3CCc4c(cc(Cn5ccnc5)cc4-c4cn(C)nc4C(F)(F)F)C3=O)c2c1 [Example 175, 4-(7-((1H-Imidazol-1-yl)methyl)-5-(1-methyl-3-(trifluoromethyl)-1H-pyrazol-4-yl)-1-oxo-3,4-dihydroisoquinolin-2(1H)-yl)-6-methoxy-2-methylquinoline-8-carbonitrile] | < 20 | < 0.02
CCc1cc(C(=O)Nc2ccncc2)c2nccc(N3CCc4c(cc(Cn5ccnc5)cc4-c4cn(C)nc4C(F)(F)F)C3=O)c2c1 [Example 158, 4-(7-((1H-Imidazol-1-yl)methyl)-5-(1-methyl-3-(trifluoromethyl)-1H-pyrazol-4-yl)-1-oxo-3,4-dihydroisoquinolin-2(1H)-yl)-6-ethyl-N-(pyridin-4-yl)quinoline-8-carboxamide] | 31 | < 0.02
CCc1cc(NC(C)=O)c2nccc(N3CCc4c(cc(Cn5ccnc5)cc4-c4cn(C)nc4C(F)(F)F)C3=O)c2c1 [Example 231, N-(4-(7-((1H-Imidazol-1-yl)methyl)-5-(1-methyl-3-(trifluoromethyl)-1H-pyrazol-4-yl)-1-oxo-3,4-dihydroisoquinolin-2(1H)-yl)-6-ethylquinolin-8-yl)acetamide] | – | < 0.02

From patent US12692249B2, “WDR5 inhibitors and modulators” (Vanderbilt University, priority 2019, dated 2026)
